PubChem BioAssay AID844 (SRMLSC, 2007)
Calls of active or inactive are those of the source. No rule for the calls is given here.

Tested on: MRP1 cells, doxorubicin viability shift, 10 uM compound
Assay: doxorubicin EC50 increase in MRP-1 cells, dose response, cell-based, doxorubicin EC50 shift (AID 844)
Conditions: for EC50: measured here: doxorubicin EC50 with compound

SMILES	fold increase in Dox EC50	EC50 [µM]
COc1ccc(N2C(=O)C(CC(=O)Nc3ccc(F)cc3)N(CCc3cccs3)C2=O)cc1 (stereo not given)	0.81 (inactive)	4.38
Cc1sc2nc(C3CC3)nc(N3CCN(S(=O)(=O)c4ccc(F)cc4)CC3)c2c1C	0.3 (inactive)	1.63
Cc1cccc2c3nc4ccccc4nc3n(CCCN3C(=O)c4ccccc4C3=O)c12	0.13 (inactive)	0.717
S=C(N/N=C/c1ccc(Cl)cc1)N1CCOCC1	1.22 (inactive)	6.57
CCC(Sc1nc2ccccc2s1)C(=O)Nc1nnc(C)s1 (stereo not given)	1.04 (inactive)	5.61
COc1ccc(Cc2nnc(N/N=C/c3ccc(O)cc3O)[nH]c2=O)cc1OC	0.15 (inactive)	0.836
O=C1c2cccc3cccc(c23)C(=O)N1CCN1CCN(CC(O)COc2ccccc2)CC1 (stereo not given)	0.32 (inactive)	1.71
CCc1nnc(NC(=O)c2ccc(-c3ccc(Cl)cc3)o2)s1	1.19 (inactive)	6.41
Cn1c(C(=O)NCc2ccccc2)cc2oc3ccccc3c21	1.46 (inactive)	7.9
CCn1c(COc2ccc(Cl)cc2)nnc1SC1CCc2ccccc2C1=O (stereo not given)	0.71 (inactive)	3.81
Cc1ccc(/C=N/NC(=O)CSCc2ccc(Cl)cc2)cc1	1.19 (inactive)	6.44
COc1ccc(/C=C/C(=O)Nc2c(C)nn(C)c2C)cc1COc1ccc(Br)cc1	0.84 (inactive)	4.51
O=C(CCCCl)NC1=NN(c2ccccc2)C(=O)C1	1.56	8.43
O=c1c(-c2nnc(SCc3ccc(Cl)cc3)o2)cccn1Cc1ccccc1	0.63 (inactive)	3.4
Cc1oc(C(=O)Nc2ccc(C(=O)O)cc2)cc1COc1ccccc1	0.42 (inactive)	2.24
CCC(Oc1ccccc1)C(=O)Nc1nnc(C(F)(F)F)s1 (stereo not given)	1.69	9.1
CCCCNc1oc(-c2ccc(OC)cc2)nc1S(=O)(=O)c1ccccc1	0.72 (inactive)	3.87
COc1ccc(OCc2nc3ccc(S(=O)(=O)Nc4ccccc4Cl)cc3[nH]2)cc1	0.96 (inactive)	5.16
CCC1SC2=NC(C)=C(C(=O)OCCOC)C(c3ccc(C(=O)OC)cc3)N2C1=O (stereo not given)	0.92 (inactive)	4.98
O=C(NC1CCCCCC1)c1nnc(Cc2ccc(Cl)cc2)o1	0.78 (inactive)	4.21
O=C(CN1C(=O)S/C(=C\c2ccc(Cl)cc2)C1=O)NNC(=O)c1ccccc1O	1.05 (inactive)	5.65
O=C(OC1CCc2ccccc2C1=O)c1ccccc1O (stereo not given)	0.69 (inactive)	3.73
COc1cc(C)ccc1N(CCCN1C(=O)c2cccc3cccc(c23)C1=O)C(=O)c1cccs1	1.13 (inactive)	6.12
Oc1c(C(c2ccccc2)N2CCc3ccccc3C2)sc2ncnn12 (stereo not given)	0.45 (inactive)	2.42
COc1cccc(C2CC(c3ccc(Cl)cc3)Nc3nc(N)nn32)c1 (stereo not given)	0.88 (inactive)	4.77
O=C(Nc1ccc(F)cc1)c1c(O)c2c(n(Cc3ccccc3)c1=O)CCCC2	1.31 (inactive)	7.07
Cc1ccc(NC(=O)Cc2csc(-c3ccccc3)n2)cc1F	1.22 (inactive)	6.6
O=C1CSC2=NCN(c3ccccc3)CN12	0.55 (inactive)	2.95
Cc1cc(C)nc(N/N=C/c2cccc3ccccc23)n1	1 (inactive)	5.39
CC(C)OC(=O)CSc1nnc2n1C(C)(C)Cc1ccccc1-2	0.82 (inactive)	4.42
